{"source": "patent US11535856B2", "about": "“Stilbenoid prenyltransferases from plants” (Arkansas State University—Jonesboro, priority 2016, dated 2022)", "key": {"[1]": {"system": "resveratrol prenyltransferase AhR4DT", "assay": "Prenyltransferase assay with microsomal fraction of elicited peanut hairy roots", "assay_type": "biochemical, Arachis hypogaea", "conditions": "microsomal fraction of peanut hairy roots, 28° C., 60 min; read-out: apparent km"}, "[2]": {"conditions": "in vivo; cited from earlier work"}, "[3]": {"target": "human cannabinoid receptors 2 (hCBR2s) (Homo sapiens, UniProt P34972)", "sequence (P34972 whole entry)": "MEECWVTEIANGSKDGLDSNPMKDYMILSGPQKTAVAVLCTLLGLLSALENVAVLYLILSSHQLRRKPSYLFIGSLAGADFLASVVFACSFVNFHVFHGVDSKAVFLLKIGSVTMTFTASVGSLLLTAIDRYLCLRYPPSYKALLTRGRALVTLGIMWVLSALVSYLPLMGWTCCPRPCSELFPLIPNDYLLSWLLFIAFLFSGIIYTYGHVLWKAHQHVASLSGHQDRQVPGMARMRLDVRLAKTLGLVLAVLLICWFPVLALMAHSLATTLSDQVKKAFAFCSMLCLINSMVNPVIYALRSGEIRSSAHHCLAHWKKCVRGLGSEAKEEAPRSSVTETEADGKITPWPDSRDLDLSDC", "conditions": "cited from earlier work"}, "macrophages": {"system": "macrophages", "conditions": "cited from earlier work"}, "[4]": {"system": "intracellular reactive oxygen species", "conditions": "cited from earlier work"}, "rotavirus": {"system": "rotavirus", "conditions": "HT29.f8 cells; cited from earlier work"}, "leukemia HL-60 cells": {"system": "leukemia HL-60 cells", "conditions": "cited from earlier work"}, "[5]": {"system": "SK-MEL, KB, BT-549, and SK-OV-3", "conditions": "BT-549, SK-OV-3; cited from earlier work"}, "[6]": {"assay": "Lipophilicity from retention in reverse-phase HPLC", "conditions": "later retention time in reverse-phase HPLC"}, "[7]": {"substrate": "CC(C)=CCOP(=O)(O)OP(=O)(O)O", "assay": "cells, lysate or membranes named", "conditions": "other: microsomal fraction of N. benthamiana leaves, pH 9.0, 28° C."}, "[8]": {"substrate": "Oc1cc(O)cc(/C=C/c2ccc(O)c(O)c2)c1", "assay": "cells, lysate or membranes named"}, "[9]": {"substrate": "Oc1ccc(/C=C/c2cc(O)cc(O)c2)cc1", "assay": "cells, lysate or membranes named", "conditions": "other: microsomal fraction of N. benthamiana leaves, pH 9.0, 28° C."}, "AhR4DT-1": {"target": "AhR4DT-1 (Arachis hypogaea, UniProt A0A2H4GDC8)", "assay": "AhR4DT-1 activity in microsomal fraction of N. benthamiana leaves", "conditions": "N. benthamiana leaves"}, "resveratrol prenylation": {"system": "resveratrol prenylation", "assay": "Screening for stilbenoid prenylation activity, crude extract of infiltrated N. benthamiana leaves", "assay_type": "biochemical, Arachis hypogaea", "conditions": "resveratrol and DMAPP as substrates", "experimental": "The engineered A. tumefaciens was grown in 5 mL of YEP medium, containing 50 mg/L of kanamycin (Sigma-Aldrich) and 30 mg/L of streptomycin (Sigma-Aldrich) for antibiotic selection, at 28° C. on an orbital shaker at 200 rpm. After cultivation for 2 days, 5 mL of bacterial suspension was inoculated into 50 mL of fresh YEP medium containing the antibiotics and allowed to grow for one additional day under the same conditions. Bacteria were pelleted by centrifugation, resuspended in 500 mL of induction medium containing 10 mM MgCl2 with 1 mM acetosyringone and incubated for 4 h at 28° C. under 200 rpm orbital shaking until their OD600 reached to a range from 0.5 to 0.6. Before the infiltration, 0.005% of Tween-20, 0.005% of Triton 100 and 0.005% of Silwet L-77 were added to bacterial cultures to enhance the efficiency of transformation in N. benthamiana leaves. Agrobacterium-mediated vacuum infiltration was performed on 4-week-old N. benthamiana following the methodology described previously (Medrano et al., 2009).\nAfter 48 hours of post-infiltration, the “middle tier” of N. benthamiana leaves were harvested for prenylation activity screening. Five grams of leaf tissue (fresh weight) were grounded and homogenized using a mortar with pestle in 10 mL of extraction buffer containing 100 mM Tris-HCl (pH 7.6) and 10 mM dithiothreitol (DTT). […] The total protein concentration was determined by coomassie protein assay (Thermo Scientific) using bovine serum albumin as standard.\nThe reaction of crude cell-free extract of N. benthamiana leaves infiltrated with A. tumefaciens harboring the empty pBIB-Kan vector was used as control."}, "AhR3′DT-1": {"target": "AhR3′DT-1 (Arachis hypogaea, UniProt A0A2H4GDD0)", "assay": "AhR3′DT-1 activity in microsomal fraction of N. benthamiana leaves", "conditions": "N. benthamiana leaves"}}, "data": [{"molecule": "Oc1ccc(/C=C/c2cc(O)cc(O)c2)cc1", "note": "[resveratrol, 3,5,4′-trihydroxy-trans-stilbene]", "values": [{"measurement": "Km", "setting": "[1]", "result": "111 ± 40.4", "unit": "µM"}, {"measurement": "oral bioavailability", "setting": "[2]", "result": "limited oral bioavailability"}]}, {"molecule": "CC(C)/C=C/c1c(O)cc(/C=C/c2ccc(O)cc2)cc1O", "note": "[arachidin-3]", "values": [{"measurement": "binding to hCBR2s", "setting": "[3]", "result": "shown to bind"}, {"measurement": "inhibiting inducible nitric oxide production", "setting": "macrophages", "result": "more effective than resveratrol"}, {"measurement": "inhibiting production of intracellular reactive oxygen species", "setting": "[4]", "result": "greater potency over resveratrol"}, {"measurement": "replication of rotavirus", "setting": "rotavirus", "result": "inhibiting the replication of rotavirus"}]}, {"molecule": "CC(C)/C=C/c1c(O)cc(/C=C/c2ccc(O)c(O)c2)cc1O", "note": "[arachidin-1]", "values": [{"measurement": "binding to hCBR2s", "setting": "[3]", "result": "shown to bind"}, {"measurement": "inhibiting inducible nitric oxide production", "setting": "macrophages", "result": "more effective than resveratrol"}, {"measurement": "cytotoxicity", "setting": "leukemia HL-60 cells", "result": "higher cytotoxicity than resveratrol"}, {"measurement": "cytotoxicity", "setting": "[5]", "result": "higher cytotoxicity than resveratrol"}, {"measurement": "replication of rotavirus", "setting": "rotavirus", "result": "inhibiting the replication of rotavirus"}, {"measurement": "lipophilicity compared with 3,3-dimethylallyl analogs", "setting": "[6]", "result": "higher lipophilicity"}]}, {"molecule": "CC(C)=CCc1c(O)cc(/C=C/c2ccc(O)cc2)cc1O", "note": "[arachidin-2]", "values": [{"measurement": "inhibiting inducible nitric oxide production", "setting": "macrophages", "result": "more effective than resveratrol"}, {"measurement": "inhibiting production of intracellular reactive oxygen species", "setting": "[4]", "result": "greater potency over resveratrol"}]}, {"molecule": "AhR4DT-1 (Arachis hypogaea) (protein) MAFGHLVLIPRSTSSIATTAASCWKSKKFADNYYANSYGRRALWQSDRNLTKDHSIKTSLQHNISKLHYNPIERGSRCNKIEKTYLTNASSSAQSHESEPEVHESPKALESIKKGLVMFLQFCRLYAFLGMIPAGLSSSLLAVDNFSEISPLLFLKGVLQYIVTFFFTSQFVMGVNQLSDVEIDKINKPDLPLASGEYSFTSGVILVTSFLLAGFGVAWMLGSQPLIWSVVVTAALMGAYSVNFPLLRWKRSIILTSLSNAIAMLASFHIGPFLHMKTFVLKKAATFPRSMILGCVVIGLFYTIITLTKDLGDVEGDKAAGLKTLPIRLGVKPVFWLCVSLIQMAYGIAITMGALSPVLWSKIVTVVAHAFMVFYVWNHALNSVDLSSKDSLHSFHLFMFKLVTVEGILIQFVR", "values": [{"measurement": "Km", "setting": "[7]", "result": "153.7 ± 27.28", "unit": "µM"}, {"measurement": "Km", "setting": "[8]; other: microsomal fraction of N. benthamiana leaves, pH 9.0, 28° C.", "result": "311.4 ± 54.83", "unit": "µM"}, {"measurement": "Km", "setting": "[9]", "result": "99.52 ± 15.11", "unit": "µM"}, {"measurement": "specific activity, microsomal fraction vs crude cell-free extracts", "setting": "AhR4DT-1", "result": 8.9, "unit": "fold"}]}, {"molecule": "AhR3′DT-1 (Arachis hypogaea) (protein) MAFGVVAASFSRAPSIVTTRGCYVTRASLPNKSLKFSKEYNLKTSLQHNWKHNSRSIFERGSTITTCDKYDEKKYLMNVTQSHEAEPHSQSILKSIIDALDAFRKFSRFYAFIAMVVGSLSTSLLAVDNLTELYPAFFNGFLQCMAAYFFMHLYIVGINQLADLEIDKINKPYLPLASGNYSFRTAVITVTSFLFTGFGIAWIIGSKPLLWTIFASFVLMTAYSVNLPLLRWKKSTILTVMGNTLSMVISFNLGPFYHMKTHVLKKAATFPRSLLFAVVVMSMYYIVIALTKDIPDIEGDKEAGLQTLAIRLGPKTVFWSSVALLEMAYGAAIIIGASSPFLWSKISVVLSHAILALFVWYRSTLVDLSNKDSLQAFYMLIFKLFSVENILMLFVR", "values": [{"measurement": "resveratrol prenyltransferase activity", "setting": "resveratrol prenylation", "result": "highest activity"}, {"measurement": "Km", "setting": "[7]", "result": "691.4 ± 48.46", "unit": "µM"}, {"measurement": "Km", "setting": "[8]; pH 9.0, 28.0 °C", "result": "50.3 ± 5.509", "unit": "µM"}, {"measurement": "Km", "setting": "[9]", "result": "17.67 ± 1.601", "unit": "µM"}, {"measurement": "specific activity, microsomal fraction vs crude cell-free extracts", "setting": "AhR3′DT-1", "result": 13.9, "unit": "fold"}]}]}
